IC50 and activity data for 3 compounds are collected here from patent US20240383911A1, “AZAINDAZOLE MACROCYCLE COMPOUNDS AND USES THEREOF” (BROADENBIO CO., LTD, priority 2021, published 2024).

Structures are written as SMILES. pIC50: −log10 of the molar value. A value given as a limit tells only on which side of the number the result lay.

For assay [1], the target named is HPK1 (Homo sapiens, UniProt Q92918). The experiment in a line: HPK1 kinase activity inhibition test (ADP-Glo, luminescence). The format is biochemical. Conditions: 2 μM ATP, 5 nM HPK1, read-out: IC50, inhibitory effects on HPK1 kinase activity. The method in brief: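 Autophosphorylation assay without added substrate: HPK1 preincubated with compound 10 min at 25 °C, then ATP added for 60 min at 25 °C; final DMSO 0.5%. ADP measured by ADP-Glo luminescence; IC50 from four-parameter nonlinear fit.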
Sequence of HPK1 (Q92918 whole entry): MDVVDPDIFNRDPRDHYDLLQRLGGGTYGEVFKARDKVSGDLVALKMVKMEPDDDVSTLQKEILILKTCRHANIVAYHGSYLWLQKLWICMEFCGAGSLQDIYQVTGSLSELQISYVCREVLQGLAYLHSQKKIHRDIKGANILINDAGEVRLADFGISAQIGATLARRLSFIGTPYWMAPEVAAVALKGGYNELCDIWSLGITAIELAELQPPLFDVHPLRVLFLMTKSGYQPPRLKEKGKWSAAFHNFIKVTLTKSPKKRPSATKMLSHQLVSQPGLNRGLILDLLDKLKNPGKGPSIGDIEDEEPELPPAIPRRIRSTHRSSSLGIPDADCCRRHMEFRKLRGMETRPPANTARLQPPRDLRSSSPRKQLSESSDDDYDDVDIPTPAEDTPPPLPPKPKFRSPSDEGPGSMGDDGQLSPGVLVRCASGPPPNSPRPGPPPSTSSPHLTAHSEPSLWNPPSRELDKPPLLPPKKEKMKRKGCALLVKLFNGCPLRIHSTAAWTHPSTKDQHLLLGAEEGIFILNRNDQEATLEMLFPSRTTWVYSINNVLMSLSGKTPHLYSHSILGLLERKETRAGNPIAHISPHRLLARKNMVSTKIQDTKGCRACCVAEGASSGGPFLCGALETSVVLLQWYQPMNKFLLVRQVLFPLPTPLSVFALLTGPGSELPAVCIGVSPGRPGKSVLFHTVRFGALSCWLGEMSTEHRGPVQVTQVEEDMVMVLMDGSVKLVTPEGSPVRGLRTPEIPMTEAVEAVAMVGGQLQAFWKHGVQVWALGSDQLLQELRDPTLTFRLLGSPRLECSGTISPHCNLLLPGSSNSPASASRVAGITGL
In general terms: ADP-Glo turns the ADP formed in a reaction into a luminescent signal.

In assay [2] the test system is Human Jurkat-E6-1 cells. As to the kind of experiment: Detection of IL-2 production by Jurkat cells using ELISA. In kind it is cell-based. To be noted: anti-CD3/anti-CD28 stimulation 24 hours, read-out: Percentage of the amount of IL-2 secreted by compound treated vs DMSO-treated cells. Put shortly: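 Jurkat E6-1 cells were pre-incubated with compound for 30 min at 37 °C, then stimulated 24 h on plate-bound anti-CD3 plus soluble anti-CD28. Secreted IL-2 in supernatant was measured by sandwich ELISA (450 nm) against a standard curve and expressed as % of DMSO-treated cells.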
In general terms: An ELISA detects its analyte on a solid surface through an enzyme-linked reagent.

The test system of assay [3] is MV-4-11 cells. As to the kind of experiment: Detection of MV-4-11 cell activity (CellTiter-Glo). The format is cell-based. Conditions: Homo sapiens, MV4-11, 120 h, 5 days, CTG, read-out: IC50, inhibitory effects on MV-4-11 cell activity. The method, then:
The CellTiter-Glo (CTG) luminescence method was used to detect the effect of compounds on the activity of MV-4-11 cells.
Tested compounds: compound prepared in the Examples of the present invention.
Add 100 μL containing 20,000 MV-4-11 (human myeloid monocytic leukemia cells, from the Cell Bank of the Chinese Academy of Sciences, Cat. No. SCSP-5031) cell suspension to 96-well flat-bottom clear-bottomed cell plates (Corning, Cat #3603), and then add 100 μL of cell culture medium containing a series of concentrations of the compound to be tested, with a total volume of 200 μL per well. The final gradient concentrations of the compounds were 500 nM, 125 nM, 31.25 nM, 7.813 nM, 1.953 nM, 0.488 nM, 0.122 nM, 0.031 nM, and 0.008 nM, and the final DMSO content was 0.5%. Set cells with the cell culture medium containing 0.5% DMSO but without compounds as the 100% control; set the culture medium wells without cells as 0% background control. Incubate the cell plate in a humidified incubator at 37° C. and 5% CO2 for 5 days. After 5 days, take out the cell plate, centrifuge (1000 rpm) for 5 minutes, remove and discard 100 μL supernatant, add 100 μL CTG reagent (Promega, Cat #G7572) to each well, shake at room temperature for 10 minutes to promote cell lysis, and incubate at room temperature for 30 minutes to stabilize the luminescence signal. Use a microplate reader (Molecular Device, i3X) to read the Luminescent fluorescence value, use GraphPad Prism 5.0 software to analyze the original data, use nonlinear S-curve regression to fit the data to obtain the dose-effect curve (cell survival rate %), and calculate the IC50 value.
On the technique in general: In ATP-based viability assays light output follows the ATP content of the culture.

The target of assay [4] is KDR (Homo sapiens, UniProt P35968). As to the kind of experiment: KDR kinase activity inhibition test (HTRF). In kind it is biochemical. Conditions: read-out: IC50, inhibitory effects on KDR kinase activity. The method, then: (§1) Tested compounds: compounds prepared in the Examples of this invention.
Sequence of KDR (P35968 20-1356): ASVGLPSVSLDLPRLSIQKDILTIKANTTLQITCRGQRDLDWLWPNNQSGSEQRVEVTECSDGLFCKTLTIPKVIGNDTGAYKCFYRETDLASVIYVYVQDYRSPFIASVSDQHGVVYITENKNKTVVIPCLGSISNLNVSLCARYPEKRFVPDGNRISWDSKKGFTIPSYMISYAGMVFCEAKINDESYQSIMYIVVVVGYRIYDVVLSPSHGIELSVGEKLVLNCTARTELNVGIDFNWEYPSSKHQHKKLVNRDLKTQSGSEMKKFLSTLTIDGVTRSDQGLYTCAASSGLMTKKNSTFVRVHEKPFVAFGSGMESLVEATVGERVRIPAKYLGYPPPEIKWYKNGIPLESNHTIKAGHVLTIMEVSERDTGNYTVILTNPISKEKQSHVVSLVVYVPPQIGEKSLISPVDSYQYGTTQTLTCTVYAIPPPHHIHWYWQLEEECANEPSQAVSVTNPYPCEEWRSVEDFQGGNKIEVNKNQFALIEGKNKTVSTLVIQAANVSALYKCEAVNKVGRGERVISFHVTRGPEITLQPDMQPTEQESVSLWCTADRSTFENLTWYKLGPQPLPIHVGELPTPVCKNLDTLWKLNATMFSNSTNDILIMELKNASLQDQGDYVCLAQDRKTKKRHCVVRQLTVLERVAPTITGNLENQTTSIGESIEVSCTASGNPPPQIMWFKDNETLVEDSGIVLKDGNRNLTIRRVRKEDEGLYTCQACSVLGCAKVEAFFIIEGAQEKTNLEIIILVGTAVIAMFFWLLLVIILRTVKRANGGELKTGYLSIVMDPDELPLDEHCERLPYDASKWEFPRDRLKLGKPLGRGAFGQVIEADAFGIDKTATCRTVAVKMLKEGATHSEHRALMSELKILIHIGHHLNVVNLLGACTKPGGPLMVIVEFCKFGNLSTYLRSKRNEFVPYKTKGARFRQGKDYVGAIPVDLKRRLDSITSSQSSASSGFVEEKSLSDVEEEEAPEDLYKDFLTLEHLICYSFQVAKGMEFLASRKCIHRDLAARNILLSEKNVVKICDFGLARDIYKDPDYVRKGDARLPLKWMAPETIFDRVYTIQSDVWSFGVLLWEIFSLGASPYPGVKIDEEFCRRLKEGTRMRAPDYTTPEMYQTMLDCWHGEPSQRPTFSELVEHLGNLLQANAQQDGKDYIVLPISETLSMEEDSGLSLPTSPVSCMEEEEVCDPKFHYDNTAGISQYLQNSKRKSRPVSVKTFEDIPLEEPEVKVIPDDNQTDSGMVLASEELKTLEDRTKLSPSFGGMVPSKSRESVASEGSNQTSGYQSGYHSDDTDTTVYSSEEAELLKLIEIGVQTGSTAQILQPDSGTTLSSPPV
(§2) Prepare compound stock solution: dissolve the test compound in 100% DMSO to make a 10 mM stock solution. Dilute the stock solution of the test compound by 5 times with 100% DMSO, make a 4-fold equal dilution in a 96-well dilution plate, add 1 μL of the compound to 39 μL of kinase reaction buffer (1×kinase buffer, 5 mM MgCl2, 1 mM DTT), and shake on a microplate shaker for 20 minutes. 4×Positive control (4 μL of positive compound solution of the starting concentration, add 196 μL of kinase buffer) and 4×negative control (4 μL of 100% DMSO, add 196 μL of kinase buffer).
(1) Use 1×kinase reaction buffer to prepare 2.5×KDR kinase solution (250 μM), transfer 2 μL of the kinase solution to the 384 reaction plate, and add 1 μL of the test compound solution of gradient concentration to the 384 reaction plate (Greiner, Cat #784075), centrifuge for 1 minute (1000 rpm), and incubate at 25° C. for 10 minutes.
(§3) (2) Use 1×kinase reaction buffer to prepare 2.5×TK-substrate-biotin (2.5 μM) and 2.5×ATP (2.5 μM), mix well, and add 2 μL of the TK-substrate-biotin/ATP solution to the 384 reaction plate, centrifuge for 30 seconds (1000 rpm), and incubate at 25° C. for 40 minutes.
(§4) (3) Use HTRF detection buffer to prepare 2×Sa-XL 665 (125 nM) and 1×TK-antibody-Cryptate. Add 5 μL of a mixture of Sa-XL 665 and TK-antibody-Cryptate solutions to each well, centrifuge for 30 seconds (1000 rpm), and react at room temperature for 1 hour.
(§5) (4) The fluorescence signal is read using a Biotek multi-function plate reader, and the IC50 (half inhibitory concentration) of the compound is obtained using a four-coefficient nonlinear fitting formula.

The target in assay [5] is T1, FLT3 (Homo sapiens, UniProt P36888).
T1 sequence (P36888 27-993): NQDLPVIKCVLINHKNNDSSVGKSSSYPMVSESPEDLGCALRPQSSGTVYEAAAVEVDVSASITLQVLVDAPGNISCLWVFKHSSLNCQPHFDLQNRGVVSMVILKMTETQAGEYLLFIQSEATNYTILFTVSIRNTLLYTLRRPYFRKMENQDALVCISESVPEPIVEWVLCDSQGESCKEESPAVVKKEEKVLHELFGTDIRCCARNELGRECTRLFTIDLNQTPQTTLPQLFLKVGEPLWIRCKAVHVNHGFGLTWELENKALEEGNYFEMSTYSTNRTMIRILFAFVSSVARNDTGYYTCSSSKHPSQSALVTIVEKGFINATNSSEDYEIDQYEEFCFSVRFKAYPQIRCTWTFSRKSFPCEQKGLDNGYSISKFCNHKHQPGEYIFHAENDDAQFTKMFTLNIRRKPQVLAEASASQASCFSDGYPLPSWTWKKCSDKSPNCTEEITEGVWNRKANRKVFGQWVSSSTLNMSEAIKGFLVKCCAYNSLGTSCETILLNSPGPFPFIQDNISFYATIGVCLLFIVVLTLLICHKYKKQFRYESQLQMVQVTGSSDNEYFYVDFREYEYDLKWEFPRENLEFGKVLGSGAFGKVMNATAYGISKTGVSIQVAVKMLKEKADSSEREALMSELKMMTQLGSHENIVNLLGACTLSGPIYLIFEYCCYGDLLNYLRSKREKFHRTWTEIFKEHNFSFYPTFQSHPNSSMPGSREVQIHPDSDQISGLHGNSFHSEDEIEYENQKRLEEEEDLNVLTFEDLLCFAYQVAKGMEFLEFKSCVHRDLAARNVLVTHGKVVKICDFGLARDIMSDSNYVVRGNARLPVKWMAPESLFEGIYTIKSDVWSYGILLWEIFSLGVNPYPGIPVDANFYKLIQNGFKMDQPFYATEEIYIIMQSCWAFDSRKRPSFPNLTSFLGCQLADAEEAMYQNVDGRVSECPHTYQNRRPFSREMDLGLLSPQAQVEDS
The experiment in a line: FLT3 kinase activity inhibition test (HTRF). The format is biochemical. Conditions: read-out: IC50, inhibitory effects on FLT3 kinase activity. The method, then: as §1, §2
(1) Use 1×kinase reaction buffer to prepare 2.5×FLT3 kinase solution (160 μM), transfer 2 μL of the kinase solution to the 384 reaction plate, and add 1 μL of the test compound solution of gradient concentration to the 384 reaction plate (Greiner, Cat #784075), centrifuge for 1 minute (1000 rpm), and incubate at 25° C. for 10 minutes.
as §3, §4, §5

In general, pIC50 refers to −log10 of the IC50, conventionally taken in molar units. On to `Fc1cccc2c1-c1cc3c(n[nH]c3cn1)-c1ccc(N3CCOCC3)c(c1)OCCCO2` [Compound 5, 16-fluoro-5-(morpholin-4-yl)-7,11-dioxa-19,22,23-triazapentacyclo[16.5.2.1^2,6.0^12,17.0^21,24]hexacosa-1(23),2(26),3,5,12,14,16,18,20,24-decaene], for which the pIC50 in assay [1] is 7.30 to 8.30; in assay [3] it was 7.30. Further, the activity at 3 µM in assay [2] (tested compound 3.0 μM) is 717%.

For the compound `CN1CCN(c2ccc3cc2OCCCOCc2cccc(F)c2-c2cc4c-3n[nH]c4cn2)CC1` [Compound 11, 17-fluoro-5-(4-methylpiperazin-1-yl)-7,11-dioxa-20,23,24-triazapentacyclo[17.5.2.1^2,6.0^13,18.0^22,25]heptacosa-1(24),2(27),3,5,13,15,17,19,21,25-decaene], the pIC50 in assay [4] was ≥ 8.30; in assay [1] it was ≥ 8.30; in assay [3], 8.21; in assay [5], ≥ 8.30.

For the compound `CN1C[C@@H]2C[C@H]1CN2c1ccc2cc1OCCCOCc1cccc(F)c1-c1cc3c-2n[nH]c3cn1` [Compound 151, 17-fluoro-5-[(1S,4S)-5-methyl-2,5-diazabicyclo[2.2.1]heptan-2-yl]-7,11-dioxa-20,23,24-triazapentacyclo[17.5.2.1^2,6.0^13,18.0^22,25]heptacosa-1(24),2,4,6(27),13(18),14,16,19,21,25-decaene], the pIC50 in assay [4], in assay [1] and in assay [5] was ≥ 8.30 in each case. The activity at 1 µM in assay [2] (tested compound 1.0 μM) was 416%.
